According to ChEMBL document CHEMBL5724914, “Linking interpersonal differences in gut microbiota composition and drug biotransformation activity” (2024):

How the values were obtained:
[1] = (§1) The drug is tested on Z-018 corresponding to pig gut metagenome with ENA study accession number: PRJEB37062 and ENA sample accession number: ERS12561817 for biotransformation under anaerobic condition. The drug concentrations were measured over 9 timepoints collected between 0 and 24 hours of incubation by liquid-chromatography-coupled mass spectrometry (LC–MS); settings: 2 µM
[2] = as §1, with “Z-017” for “Z-018”, “mouse” for “pig”, “ERS12561816” for “ERS12561817”; settings: 2 µM
[3] = as §1, with “Z-030” for “Z-018”, “mouse” for “pig”, “ERS12561829” for “ERS12561817”; settings: 2 µM
[4] = as §1, with “WLS-350” for “Z-018”, “human” for “pig”, “ERS12561789” for “ERS12561817”; settings: 2 µM
[5] = as §1, with “Z-028” for “Z-018”, “mouse” for “pig”, “ERS12561827” for “ERS12561817”; settings: 2 µM
[6] = as §1, with “WLS-170” for “Z-018”, “human” for “pig”, “ERS12561762” for “ERS12561817”; settings: 2 µM
[7] = human gut metagenome, 24 h, 2 µM
[8] = as §1, with “WLS-069” for “Z-018”, “human” for “pig”, “ERS12561748” for “ERS12561817”; settings: 2 µM
[9] = as §1, with “WLS-010” for “Z-018”, “human” for “pig”, “ERS12561743” for “ERS12561817”; settings: 2 µM
[10] = as §1, with “Z-006” for “Z-018”, “mouse” for “pig”, “ERS12561806” for “ERS12561817”; settings: 2 µM
[11] = human gut metagenome, 24 h, 2 µM; remark: listed apart in the source
[12] = human gut metagenome, 24 h, 2 µM; remark: listed apart in the source
[13] = human gut metagenome, 24 h, 2 µM; remark: listed apart in the source
[14] = as §1, with “WLS-039” for “Z-018”, “human” for “pig”, “ERS12561746” for “ERS12561817”; settings: 2 µM
[15] = human gut metagenome, 24 h, 2 µM; remark: listed apart in the source
[16] = human gut metagenome, 24 h, 2 µM; remark: listed apart in the source
[17] = as §1, with “WLS-310” for “Z-018”, “human” for “pig”, “ERS12561785” for “ERS12561817”; settings: 2 µM
[18] = as §1, with “WLS-086” for “Z-018”, “human” for “pig”, “ERS12561752” for “ERS12561817”; settings: 2 µM
[19] = human gut metagenome, 24 h, 2 µM; remark: listed apart in the source
[20] = human gut metagenome, 24 h, 2 µM; remark: listed apart in the source
Further: call rule not given here.

Row | SMILES | Bacterial Biotransformation [1] | Bacterial Biotransformation [2] | Bacterial Biotransformation [3] | Bacterial Biotransformation [4] | Bacterial Biotransformation [5] | Bacterial Biotransformation [6] | Bacterial Biotransformation [7] | Bacterial Biotransformation [8] | Bacterial Biotransformation [9] | Bacterial Biotransformation [10] | Bacterial Biotransformation [11] | Bacterial Biotransformation [12] | Bacterial Biotransformation [13] | Bacterial Biotransformation [14] | Bacterial Biotransformation [15] | Bacterial Biotransformation [16] | Bacterial Biotransformation [17] | Bacterial Biotransformation [18] | Bacterial Biotransformation [19] | Bacterial Biotransformation [20]
1 | COc1c2occc2cc2ccc(=O)oc12 [METHOXSALEN] | Compound metabolized | Compound metabolized | Compound NOT metabolized | Compound metabolized | Compound metabolized | Compound metabolized | Compound metabolized | Compound metabolized | Compound metabolized | Compound metabolized | Compound metabolized | Compound metabolized | Compound metabolized | Compound metabolized | Compound metabolized | Compound metabolized | Compound metabolized | Compound metabolized |  | 
2 | CN(C)CCc1c[nH]c2ccc(Cn3cncn3)cc12.O=C(O)c1ccccc1 [RIZATRIPTAN BENZOATE] | Compound NOT metabolized | Compound NOT metabolized | Compound NOT metabolized | Compound NOT metabolized | Compound NOT metabolized |  | Compound NOT metabolized | Compound NOT metabolized | Compound NOT metabolized | Compound NOT metabolized | Compound NOT metabolized | Compound NOT metabolized | Compound NOT metabolized | Compound NOT metabolized | Compound NOT metabolized | Compound NOT metabolized | Compound NOT metabolized | Compound NOT metabolized | Compound NOT metabolized | Compound NOT metabolized
3 | COc1ccc2[nH]c([S+]([O-])Cc3ncc(C)c(OC)c3C)nc2c1 (centres undefined) [OMEPRAZOLE] | Compound NOT metabolized | Compound NOT metabolized | Compound metabolized | Compound metabolized | Compound metabolized | Compound metabolized | Compound metabolized | Compound metabolized |  | Compound NOT metabolized | Compound metabolized | Compound metabolized | Compound metabolized | Compound metabolized | Compound metabolized | Compound metabolized | Compound metabolized | Compound metabolized | Compound metabolized | Compound metabolized
4 | Cc1nc2n(c(=O)c1CCN1CCC(c3noc4cc(F)ccc34)CC1)CCCC2 [RISPERIDONE] | Compound metabolized | Compound metabolized | Compound NOT metabolized |  | Compound metabolized | Compound metabolized |  | Compound metabolized | Compound metabolized | Compound metabolized | Compound metabolized | Compound metabolized | Compound metabolized | Compound metabolized | Compound metabolized | Compound metabolized | Compound metabolized | Compound metabolized | Compound metabolized | Compound metabolized
